In PMC8157578 (Antioxidants, 2021):
Entries after “also recorded” stand apart in the source; their conditions may differ.

What was measured:
HeLa cells [1] = test: Immunofluorescence analysis of intracellular γ-H2AX generation in iron-overloaded HeLa cells (with H2O2); assay type: cell-based, human; conditions: for Fluorescence intensity of γ-H2AX: Fe(II)-H2O2 alone 2.86±0.64; for Concentration that significantly inhibits cellular DNA damage induced by iron overload (with H2O2) / Inhibition of cellular DNA damage induced by iron overload (with H2O2), in words: γ-H2AX, HeLa; for Concentration that significantly inhibits cellular DNA damage induced by iron overload (with H2O2): pre-treatment
Method: The immortalized human cervical carcinoma HeLa cell line used in this study was obtained from the Cell Resource Center, Peking Union Medical College. The cell line was checked to be free of mycoplasma contamination by PCR and culture. Its species origin was confirmed with PCR. The identity of the cell line was authenticated with STR profiling (FBI, CODIS). HeLa cells were cultured in a DMEM medium (4 mM L-glutamine, 4500 mg/L glucose, and no sodium pyruvate) with 10% fetal bovine serum (FBS) and 1% penicillin–streptomycin at 37 °C under a 5% CO2 atmosphere.
HeLa cells (10^4/well) were loaded by incubation with 20 μM Fe(II) for 2 h at 37 °C. […] For a detailed experimental procedure, please refer to the Supplementary Materials and our previous report. The experiment was repeated three times. The observation of the fluorescence of γ-H2AX in HeLa cells was conducted with a confocal laser scanning microscope (CLSM) (Leica TCS SP). Thirty cells in each group were randomly selected in different microscopic fields for quantitative detection. In detail, each well was equally divided into nine fields and numbered sequentially from the top right corner. Four fields were randomly selected according to a random number table. Thirty cells were then randomly selected from these four fields. All images were analyzed blind regarding exposure parameters, which were coded by one person and read by another who was blinded to the code. The fluorescence intensity of the γ-H2AX signal on selected images was automatically analyzed using the Image-J software. The Statistical Product and Service Solutions (SPSS 21) program was employed to analyze the data through ANOVA. Significant difference from iron-overloaded group are marked with * p < 0.05, ** p < 0.01, and *** p < 0.001.
(§1) 2.1 Immunofluorescence analysis of intracellular γ-H2AX generation in Hela cells
(§2) Fixed cells were permeabilized with 0.25% Triton-X100 in PBS for 10 min and blocked in 10%
(§3) normal goat serum, 0.1% tween 20 in PBS for 1 hour. The cells were incubated with primary
(§4) monoclonal antibody, γ-H2AX (Ser139, 20E3, Rabbit, mAb #9718) (1:600) overnight at 4°C, and then
(§5) stained secondary antibodies, anti-rabbit Alexa-488 and anti-mouse (Cell Signaling Technology) for
(§6) 1 hour. After Hoechst 33342 (10 μg/mL) staining for 2 min, dishes were mounted in ProLong™ Gold
(§7) Antifade Mountant (Invitrogen™) and stored at 4°C in the dark before confocal laser-scanning by
(§8) Broadband Confocal Leica TCS SP5. The CLSM images were obtained with the following excitation
respectively. Cells were washed 3 times with PBS (200 μL/well) at intervals. […]

HeLa cells [2] = test: Labile iron pool (LIP) determination with calcein-AM in iron-overloaded HeLa cells, flow cytometry; assay type: cell-based, human; conditions: for Fluorescence intensity of calcein-AM (LIP level): 15 min, Fe(II) alone 0.63-0.64
Method: HeLa cells (10^6/mL) were loaded by incubation with 20 μM Fe(II) for 2 h at 37 °C. Subsequently, cells were collected by centrifugation (1000 rpm for 5 min) and incubated with 0.5 μM calcein-AM for 15 min at 37 °C in a D’hanks buffer of pH 7.4. Cells were then washed twice by D’hanks buffer (pH 7.4) and incubated with or without CAPE and its analogues. The fluorescence was monitored by both flow cytometry (BD FACS Caliber) and a CLSM (Leica TCS SP). The experiment was repeated three times.
Figure 3 Effect of CAPE and its analogues on the LIP level in iron-overloaded cells, as measured by flow cytometry (A–D). HeLa cells were pretreated with 20 μM Fe(II) for 2 h and then incubated with calcein-AM. After 15 min, cells were washed and incubated with or without CAPE and its analogues for 15 min. The fluorescence intensity of cells was measured by flow cytometry. Significant differences from the iron-overloaded group are marked with * p < 0.05, ** p < 0.01, and *** p < 0.001. The experiment was repeated three times.

plasmid pBR322 DNA = test: Plasmid DNA strand breakage induced by Fe(III)–citrate/ascorbate/H2O2, agarose gel electrophoresis; assay type: biochemical; conditions: for Protective effect against iron-mediated DNA damage through inhibiting •OH generation, in words: isolated DNA, Fe(III) and Fe(II) systems, Figures S9–S12
Method: Plasmid DNA agarose gel electrophoresis was employed to investigate protective effect of CAPE and its analogues against DNA strand breakage induced by an iron-mediated system. For experimental procedure details, please refer to the Supplementary Materials.
Figure 4 Protective effect of CAPE and its analogues against Fe(III)–citrate–ascorbate–H2O2-induced DNA damage. […] The reaction mixture contained 20 μM Fe(III)–citrate, 10 μM ascorbate, and 200 μM H2O2, as well as the indicated concentrations of CAPE and its analogues. The experiments were repeated three times, and only typical images are presented. […]
(§9) The experiments were conducted via incubation of plasmid pBR322 DNA (5 μg/mL) at 37 °C for
(§10) 30 min in Chelex-treated HEPES buffer (100 mM, pH 7.4) with the iron-containing systems, in the
absence or presence of the indicated concentrations of CAPE and its analogues. […]

[3] = Calcein fluorescence quenching by Fe(III)–citrate, competition by ligand; assay type: binding; conditions: 0.1 μM calcein, 100 μM Fe(III)–citrate, 100–500 μM compound
Method: In the presence of calcein, mixtures of CAPE and Fe(III)/Fe(II) with different concentrations in 20 mM HEPES (pH 7.4) were used for fluorescence detection (Ex: 488 nm; Em: 515 nm). Fluorescence spectra were recorded using a Cary Eclipse fluorescence spectrophotometer (Varian, Palo Alto, CA, USA).
Figure 7 Effect of CAPE and its analogues on the fluorescence intensity of calcein–Fe(III)–citrate. (A,B) the fluorescence quenching of calcein by Fe(III)–citrate diminished in a (CAPE/CA:Fe(III)) ratio-dependent manner. […] The reaction mixture contained 0.1 μM calcein, 100 μM Fe(III)–citrate, and indicated concentrations of CAPE or its analogues (100–500 μM). The experiments were repeated three times, and only typical spectra are presented.

[4] = Cyclic voltammetry of Fe(III) chelated by ligand; assay type: physicochemical; conditions: 100 mM PB pH 7.4, SCE reference, 2 mV/s; Fe(III) alone approximately −0.65 V
Method: CV was performed in 100 mM PB (pH 7.4) on a Princeton Applied Research (VersaSTAT3) potentiostat with a Pt wire as the counter electrode, a saturated calomel electrode (SCE) as the reference electrode, and a glassy carbon electrode (5 mm in diameter) as the working electrode. The scan rate was 2 mV/s.

HeLa cells [5] = test: Labile iron pool (LIP) determination with calcein-AM in iron-overloaded HeLa cells, flow cytometry; assay type: cell-based, human; conditions: 500 μM compound alone, no iron
[6] = 1-octanol/phosphate buffer partitioning, shake-flask method; assay type: physicochemical; conditions: 1-octanol / 100 mM phosphate buffer pH 7.4, shake-flask
[7] = ESR spin-trapping (DMPO) of •OH generated by Fe(III)–citrate–ascorbate–H2O2; assay type: biochemical; conditions: 100 μM Fe(III)–citrate, 100 μM ascorbate, 1 mM H2O2
Method: The basic system used in this study consisted of Fe(III)/Fe(II), ascorbate, H2O2, and the spin trapping agent DMPO (100 mM) in 20 mM HEPES (pH 7.4) with or without CAPE and its analogues.
The reaction mixture contained 100 μM Fe(III)–citrate, 100 μM ascorbate, and 1 mM H2O2, as well as the indicated concentrations of CAPE and its analogues. The experiments were repeated three times, and only typical spectra are presented.
spectrometer parameters were as follows: scan range, 100 G; field set, 3470 G; time constant, 200 ms;
scan time, 100 s; modulation amplitude, 1.0 G; modulation frequency, 100 kHz; receiver gain,

[8] = Dissolved oxygen consumption by ascorbic acid/Fe(III)–citrate; assay type: biochemical; conditions: 100 μM Fe(III)-citrate, 1 mM ascorbate, ratio 5:1
Method: as §1, §2, §3, §4, §5, §6, §7, §8
respectively. Cells were washed 3 times with PBS (200 μL/well) at intervals.
as §9, §10
absence or presence of the indicated concentrations of CAPE and its analogues.
2.3 Electron spin resonance (ESR) spin-trapping studies
ESR spectra were recorded at room temperature in a Bruker ESR 300 spectrometer. Typical […]
The consumption of O2 was measured by Orion 3 dissolved oxygen meter (Thermo Scientific, […]
Corona Needle current was 3000 nA. The size of data points was recorded in 4 M format. […]

[9] = 20 μM Fe(III)–citrate, 10 μM ascorbate, 200 μM H2O2

Structure (SMILES)	Fluorescence intensity of γ-H2AX (HeLa cells [1]; Fe(II)-H2O2 + 50 μM compound)	Fluorescence intensity of γ-H2AX (HeLa cells [1]; Fe(II)-H2O2 + 100 μM compound)	Fluorescence intensity of γ-H2AX (HeLa cells [1]; Fe(II)-H2O2 + 200 μM compound)	Fluorescence intensity of γ-H2AX (HeLa cells [1]; Fe(II)-H2O2 + 500 μM compound)	Concentration that significantly inhibits cellular DNA damage induced by iron overload (with H2O2) (HeLa cells [1])	Fluorescence intensity of calcein-AM (LIP level) (HeLa cells [2]; 20 μM Fe(II) + 50 μM compound)	Fluorescence intensity of calcein-AM (LIP level) (HeLa cells [2]; 20 μM Fe(II) + 200 μM compound)	Fluorescence intensity of calcein-AM (LIP level) (HeLa cells [2]; 20 μM Fe(II) + 500 μM compound)	Concentration that significantly regenerates calcein fluorescence (decreases LIP level) (HeLa cells [2]; iron-overloaded HeLa cells)	Protective effect against Fe(III)–citrate–ascorbate–H2O2-induced DNA damage, in words (plasmid pBR322 DNA; [9])	Concentration range with the stated inhibition of Fe(III)-citrate-Vc-H2O2 induced DNA damage (plasmid pBR322 DNA; 20 μM Fe(III)–citrate, 10 μM ascorbate, 200 μM H2O2, CAPE significantly, CA slightly)	Inhibition of calcein fluorescence quenching by Fe(III)–citrate, in words [3]	Reduction potential of Fe(III) chelated by compound [4]	Fluorescence intensity of calcein-AM (LIP level) (HeLa cells [5])	Protective effect against iron-mediated DNA damage through inhibiting •OH generation, in words (plasmid pBR322 DNA)	LogKow [6]	Inhibition of cellular DNA damage induced by iron overload (with H2O2), in words (HeLa cells [1])	Effect on calcein fluorescence (LIP level), in words (HeLa cells [2]; iron-overloaded HeLa cells, 50–500 μM)	Inhibitory effect against Fe(III)-citrate-Vc-H2O2 induced •OH generation, in words [7]	Effect on O2 consumption induced by ascorbic acid/Fe(III)–citrate, in words [8]
O=C(O)/C=C/c1ccc(O)c(O)c1 [CA, caffeic acid]	3.13±0.42 Fold of Control	3.09±0.51 Fold of Control	2.82±0.43 Fold of Control	1.73±0.43 Fold of Control	500 µM	0.63±0.02 Fold of Control	0.64±0.01 Fold of Control	0.70±0.02 Fold of Control	500 µM	lower than CAPE; also recorded: slightly inhibited	20 to 200 µM	weaker inhibition	−0.76 V	1.00±0.02 Fold of Control						
CCOC(=O)/C=C/c1ccc(O)c(O)c1 [CAEE, caffeic acid ethyl ester]					50 to 500 µM				50 to 500 µM				−0.99 V		weaker than CAPE	1.51 ± 0.03				
COC(=O)/C=C/c1ccc(O)c(O)c1 [CAME, caffeic acid methyl ester]					100 to 500 µM				200 to 500 µM				−0.79 V		weaker than CAPE	1.27 ± 0.06				
CCOC(=O)/C=C/c1ccc(O)c(OC)c1 [EF, ethyl ferulate]						0.65±0.03 Fold of Control	0.62±0.02 Fold of Control	0.61±0.02 Fold of Control		no significant protective effect		no inhibitory effects		0.99±0.01 Fold of Control		1.38 ± 0.02	no significant inhibition	no effect	no inhibitory effect	no significant effects
c1cnc2c(c1)ccc1cccnc12 [OP, 1,10-phenanthroline, reference compound]																	effective			
